Test results from patent publication US9717243B2, “Piperidinecarboxylic acid derivatives as fungicides” (priority 2013, dated 2017).
Read-outs that look alike come from different tables or passages of the source.

Test: LogP by HPLC on reversed phase columns (EEC directive 79/831 Annex V.A8)
Assay type: physicochemical
Settings: for chromatographic logP: read-out: Log P[a]
Procedure: Calibration was done with straight-chain alkan2-ones (with 3 to 16 carbon atoms) with known LogP values (measurement of LogP values using retention times with linear interpolation between successive alkanones). Lambda-max-values were determined using UV-spectra from 200 nm to 400 nm and the peak values of the chromatographic signals.

[1] = Table 1, compounds of formula (I), LC-UV, acidic range, 0.1% formic acid in water and acetonitrile as eluent

COC(=O)C1(c2nc(C3=NOC(c4c(Cl)cccc4OS(C)(=O)=O)C3)cs2)CCN(C(=O)Nc2cc(C(F)F)nn2C)CC1 (centres unmarked) [Example I-12, methyl 4-[4-(5-{2-chloro-6-[(methylsulfonyl)oxy]phenyl}-4,5-dihydro-1,2-oxazol-3-yl)-1,3-thiazol-2-yl]-1-{[3-(difluoromethyl)-1-methyl-1H-pyrazol-5-yl]carbamoyl}piperidine-4-carboxylate]
chromatographic logP [1]: 2.84

Cc1cc(C(F)(F)F)nn1CC(=O)N1CCC(C#N)(C(=O)O)CC1 [IV-14]
Log P[a]: 1.50

COC(=O)C1(c2nc(C3=NOC(c4c(F)cccc4F)C3)cs2)CCN(C(=O)Cn2nc(C(F)F)cc2C(F)F)CC1 (centres unmarked) [Example I-1]
Log P[a]: 3.44

COCCOC(=O)C1(C#N)CCN(C(=O)Cn2nc(C(F)F)cc2C(F)F)CC1 [IV-2]
Log P[a]: 2.32

COC(=O)C1(C(N)=S)CCN(C(=O)Nc2cn(C)nc2C(F)F)CC1 [II-16]
Log P[a]: 1.22

CCC(C)NC(=O)C1(C#N)CCN(C(=O)Nc2ccc(Cl)c(C(F)(F)F)c2)CC1 (centres unmarked) [IV-39]
Log P[a]: 3.15

C=CCOC(=O)C1(C(N)=S)CCN(C(=O)Cn2nc(C(F)F)cc2C(F)F)CC1 [II-3]
Log P[a]: 2.42

C#CCOc1ccccc1C1CC(c2csc(C3(C(=O)OCC)CCN(C(=O)Cn4nc(C(F)F)cc4C(F)F)CC3)n2)=NO1 (centres unmarked) [Example I-27]
Log P[a]: 3.87

COC(=O)C1(c2nc(C3=NOC(c4ccccc4OS(C)(=O)=O)C3)cs2)CCN(C(=O)Nc2cn(C)nc2C(F)F)CC1 (centres unmarked) [Example I-19]
Log P[a]: 2.53

NC(=S)C1(C(=O)OC2CCOC2)CCN(C(=O)Cn2nc(C(F)F)cc2C(F)F)CC1 (centres unmarked) [II-1]
Log P[a]: 2.02

COC(=O)C1(c2nc(C3=NOC(c4c(Cl)cccc4OS(C)(=O)=O)C3)cs2)CCN(C(=O)Cn2nc(C(F)F)cc2C(F)F)CC1 (centres unmarked) [Example I-6]
Log P[a] [1]: 3.44

COC(=O)C1(c2nc(C3=NOC(c4c(F)cccc4F)C3)cs2)CCN(C(=O)Cn2nc(C)cc2C(F)F)CC1 (centres unmarked) [Example I-75]
Log P[a]: 3.11

COC(=O)C1(C#N)CCN(C(=O)Nc2cc(C(F)F)ccc2C(F)F)CC1 [IV-16]
Log P[a]: 2.47

CCC(C)NC(=O)C1(C#N)CCN(C(=O)Cc2ccc(Cl)cc2)CC1 (centres unmarked) [IV-37]
Log P[a]: 2.46

CS(=O)(=O)Oc1cccc(Cl)c1C1CC(c2csc(C3(C(=O)OCc4ccccc4)CCN(C(=O)Cn4nc(C(F)F)cc4C(F)F)CC3)n2)=NO1 (centres unmarked) [Example I-35]
Log P[a]: 4.19

CCC(C)NC(=O)C1(C#N)CCN(C(=O)Cc2ccccc2)CC1 (centres unmarked) [IV-38]
Log P[a]: 2.08

CC(C)=CCNC(=O)C1(C#N)CCN(C(=O)Nc2ccc(F)cc2)CC1 [IV-44]
Log P[a]: 2.16

N#CC1(C(=O)O)CCN(C(=S)Nc2ccc(OC(F)(F)F)cc2)CC1 [IV-33]
Log P[a]: 2.33

CCC(C)NC(=O)C1(C#N)CCN(C(=O)Nc2cccc(C#N)c2)CC1 (centres unmarked) [IV-36]
Log P[a]: 1.28

N#CC1(C(=O)OC2CCOC2)CCN(C(=O)Cn2nc(C(F)F)cc2C(F)F)CC1 (centres unmarked) [IV-1]
Log P[a]: 2.26

C#CCOc1ccc(F)c(F)c1C1CC(c2csc(C3(C(=O)OC(C)C)CCN(C(=O)Cn4nc(C(F)F)cc4C(F)F)CC3)n2)=NO1 (centres unmarked) [Example I-34]
Log P[a]: 4.09

COC(=O)C1(c2nc(C3=NOC(c4ccccc4)C3)cs2)CCN(C(=O)Cn2nc(C(F)F)cc2C)CC1 (centres unmarked) [Example I-63]
Log P[a]: 3.17

CSCCOC(=O)C1(c2nc(C3=NOC(c4ccccc4)C3)cs2)CCN(C(=O)Cn2nc(C(F)F)cc2C(F)F)CC1 (centres unmarked) [Example I-50]
Log P[a]: 3.89

C#CCOc1ccccc1C1CC(c2csc(C3(C(=O)OC)CCN(C(=O)Cn4nc(C(F)F)cc4C(F)F)CC3)n2)=NO1 (centres unmarked) [Example I-4]
Log P[a]: 3.61

COC(=O)C1(c2nc(C3=NOC(c4ccccc4)C3)cs2)CCN(C(=O)Cn2nc(C(F)F)cc2C(F)F)CC1 (centres unmarked) [Example I-5]
Log P[a]: 3.48

CCOC(=O)C1(c2nc(C3=NOC(c4c(Cl)cccc4OS(C)(=O)=O)C3)cs2)CCN(C(=O)Cn2nc(C(F)F)cc2C(F)F)CC1 (centres unmarked) [Example I-22]
Log P[a]: 3.71

C#CCOc1ccccc1C1CC(c2csc(C3(C(=O)OC(C)C)CCN(C(=O)Cn4nc(C(F)F)cc4C(F)F)CC3)n2)=NO1 (centres unmarked) [Example I-33]
Log P[a]: 4.14

CCC(C)NC(=O)C1(C#N)CCN(C(=O)Nc2ccccc2)CC1 (centres unmarked) [IV-45]
Log P[a]: 2.13

COC(=O)C1(C#N)CCN(C(=O)Cn2nc(C(F)(F)F)cc2C)CC1 [IV-7]
Log P[a]: 2.32

O=C(Cn1nc(C(F)F)cc1C(F)F)N1CCC(C(=O)OC2CCOC2)(c2nc(C3=NOC(c4ccccc4-c4ccccc4)C3)cs2)CC1 (centres unmarked) [Example I-54]
Log P[a] [1]: 4.31

C#CCOc1ccccc1C1CC(c2csc(C3(C(=O)OC)CCN(C(=O)Cn4nc(C(F)F)cc4C)CC3)n2)=NO1 (centres unmarked) [Example I-65]
Log P[a]: 3.33

C=CCOC(=O)C1(c2nc(C3=NOC(c4c(F)cccc4F)C3)cs2)CCN(C(=O)Cn2nc(C(F)F)cc2C(F)F)CC1 (centres unmarked) [Example I-43]
Log P[a]: 3.83

C#CCOc1ccccc1C1CC(c2csc(C3(C(=O)OC)CCN(C(=O)Nc4cn(C)nc4C(F)F)CC3)n2)=NO1 (centres unmarked) [Example I-20]
Log P[a]: 2.88

CSCCOC(=O)C1(c2nc(C3=NOC(c4c(F)cccc4F)C3)cs2)CCN(C(=O)Cn2nc(C(F)F)cc2C(F)F)CC1 (centres unmarked) [Example I-49]
Log P[a]: 3.87

COC(=O)C1(C#N)CCN(C(=O)CCl)CC1 [VI-1, methyl 1-(chloroacetyl)-4-cyanopiperidine-4-carboxylate]
chromatographic logP (Table 3, compounds of formula (VI), LC-UV, acidic range, 0.1% formic acid in water and acetonitrile as eluent): 1.27

CC(C)=CCN(C)C(=O)C1(C#N)CCN(C(=O)Nc2ccc(F)cc2)CC1 [IV-40]
Log P[a]: 2.71

COCCOC(=O)C1(c2nc(C3=NOC(c4c(Cl)cccc4OS(C)(=O)=O)C3)cs2)CCN(C(=O)Cn2nc(C(F)F)cc2C(F)F)CC1 (centres unmarked) [Example I-77]
Log P[a]: 3.48

COC(=O)C1(C(N)=S)CCN(C(=O)Cn2nc(C)cc2C(F)F)CC1 [II-5]
Log P[a]: 1.75

CC(C)(C)OC(=O)C1(C#N)CCN(C(=O)Nc2ccc(Cl)c(C(F)(F)F)c2)CC1 [IV-28]
Log P[a]: 4.06

N#CC1(C(=O)O)CCN(C(=O)Nc2ccc(Cl)c(C(F)(F)F)c2)CC1 [IV-30]
Log P[a]: 2.42

CC(C)OC(=O)C1(C#N)CCN(C(=O)Cn2nc(C(F)F)cc2C(F)F)CC1 [IV-10]
Log P[a]: 2.84

COC(=O)C1(c2nc(C3=NOC(c4ccccc4OS(C)(=O)=O)C3)cs2)CCN(C(=O)Cn2nc(C(F)F)cc2C)CC1 (centres unmarked) [Example I-64]
Log P[a]: 2.96

C#CCOc1ccc(F)c(F)c1C1CC(c2csc(C3(C(=O)OC)CCN(C(=O)Cn4nc(C(F)(F)F)cc4C)CC3)n2)=NO1 (centres unmarked) [Example I-73]
Log P[a]: 3.71

C=CCOC(=O)C1(c2nc(C3=NOC(c4c(Cl)cccc4OS(C)(=O)=O)C3)cs2)CCN(C(=O)Cn2nc(C(F)F)cc2C(F)F)CC1 (centres unmarked) [Example I-41]
Log P[a]: 3.80
